Reference: PubChem BioAssay (NCI)
“And” between values parts separate entries of the source, which are not always exact repeats. Equal values may be shown once.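 Test compounds were applied to cells in 96-well plates for 48 hours at 5 doses. The concentration for 50% growth inhibition is given as GI50. TGI: concentration producing complete growth inhibition.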

What was measured:
Assay in all cases: NCI tumour cell line growth inhibition, 48 h
OVCAR-5 ovarian = system: OVCAR-5 ovarian
SK-OV-3 ovarian = system: SK-OV-3 ovarian
SF-539 CNS = system: SF-539 CNS
EKVX NSCLC = system: EKVX NSCLC
CAKI-1 renal = system: CAKI-1 renal
SW-620 colon = system: SW-620 colon
UACC-257 melanoma = system: UACC-257 melanoma
KM12 colon = system: KM12 colon
COLO 205 colon = system: COLO 205 colon
NCI-H226 lung = system: NCI-H226 lung
SK-MEL-28 melanoma = system: SK-MEL-28 melanoma
SK-MEL-2 melanoma = system: SK-MEL-2 melanoma
HOP-92 NSCLC = system: HOP-92 NSCLC
OVCAR-8 ovarian = system: OVCAR-8 ovarian
SF-295 CNS = system: SF-295 CNS
PC-3 prostate = system: PC-3 prostate
NCI/ADR-RES ovarian = system: NCI/ADR-RES ovarian
SF-268 CNS = system: SF-268 CNS
ACHN renal = system: ACHN renal
UO-31 renal = system: UO-31 renal
A549 NSCLC = system: A549 NSCLC
HCT-116 colon = system: HCT-116 colon
OVCAR-4 ovarian = system: OVCAR-4 ovarian
LOX IMVI melanoma = system: LOX IMVI melanoma
SR leukemia = system: SR leukemia
HL-60(TB) leukemia = system: HL-60(TB) leukemia
TK-10 renal = system: TK-10 renal
MOLT-4 leukemia = system: MOLT-4 leukemia
HOP-62 NSCLC = system: HOP-62 NSCLC

Q: `CC1(C)[C@H](O)[C@H](F)C[C@@]2(C)Oc3ccc(C(=O)Nc4ccc5c(c4)NC(=O)C54CCN(CCCCC#N)CC4)cc3C[C@H]12` was tested. Which GI50 (OVCAR-5 ovarian) did it give?
A: Its GI50 is 5410 nM and 5820 nM.

Q: And the TGI (OVCAR-5 ovarian)?
A: Its TGI is 34500 nM.

Q: What about the GI50 (SK-OV-3 ovarian) of the same molecule?
A: The GI50 was 2100 nM and 341 nM.

Q: What about the TGI (SK-OV-3 ovarian) of the same molecule?
A: Its TGI is 3540 nM.

Q: What about the GI50 (SF-539 CNS) of the same molecule?
A: The GI50 was 6.98 nM.

Q: And the TGI (SF-539 CNS)?
A: The TGI was 4770 nM and 2500 nM.

Q: What about the GI50 (EKVX NSCLC) of the same molecule?
A: The GI50 was 4010 nM and 4250 nM.

Q: What about the TGI (EKVX NSCLC) of the same molecule?
A: Its TGI is 22100 nM.

Q: And the TGI (CAKI-1 renal)?
A: The TGI was 38500 nM.

Q: What about the GI50 (SW-620 colon) of the same molecule?
A: The GI50 was 94.3 nM and 40.5 nM.

Q: And the TGI (SW-620 colon)?
A: Its TGI is 2520 nM and 2680 nM.

Q: What about the GI50 (UACC-257 melanoma) of the same molecule?
A: Its GI50 is 1570 nM.

Q: What about the TGI (UACC-257 melanoma) of the same molecule?
A: Its TGI is 5020 nM.

Q: And the GI50 (KM12 colon)?
A: The GI50 was 463 nM and 707 nM.

Q: What about the TGI (KM12 colon) of the same molecule?
A: Its TGI is 9790 nM and 11900 nM.

Q: What about the GI50 (COLO 205 colon) of the same molecule?
A: The GI50 was 1240 nM and 1140 nM.

Q: And the TGI (COLO 205 colon)?
A: Its TGI is 3420 nM and 3630 nM.

Q: And the GI50 (NCI-H226 lung)?
A: Its GI50 is 2910 nM.

Q: What about the TGI (NCI-H226 lung) of the same molecule?
A: The TGI was 17400 nM.

Q: And the GI50 (SK-MEL-28 melanoma)?
A: The GI50 was 1250 nM and 1200 nM.

Q: And the TGI (SK-MEL-28 melanoma)?
A: Its TGI is 3610 nM and 3430 nM.

Q: What about the GI50 (SK-MEL-2 melanoma) of the same molecule?
A: The GI50 was 1140 nM.

Q: And the TGI (SK-MEL-2 melanoma)?
A: The TGI was 2440 nM.

Q: What about the GI50 (HOP-92 NSCLC) of the same molecule?
A: The GI50 was 9.86 nM.

Q: And the TGI (HOP-92 NSCLC)?
A: Its TGI is 3280 nM and 8090 nM.

Q: What about the GI50 (OVCAR-8 ovarian) of the same molecule?
A: Its GI50 is 5360 nM.

Q: What about the TGI (OVCAR-8 ovarian) of the same molecule?
A: The TGI was 45100 nM.

Q: And the GI50 (SF-295 CNS)?
A: Its GI50 is 4.02 nM.

Q: And the TGI (SF-295 CNS)?
A: Its TGI is 18.1 nM.

Q: What about the GI50 (PC-3 prostate) of the same molecule?
A: Its GI50 is 22.5 nM.

Q: What about the TGI (PC-3 prostate) of the same molecule?
A: Its TGI is 2840 nM and 5240 nM.

Q: And the GI50 (NCI/ADR-RES ovarian)?
A: The GI50 was 42900 nM.

Q: What about the TGI (NCI/ADR-RES ovarian) of the same molecule?
A: The TGI was over 100000 nM.

Q: And the GI50 (SF-268 CNS)?
A: The GI50 was 413 nM and 400 nM.

Q: What about the TGI (SF-268 CNS) of the same molecule?
A: Its TGI is 10100 nM.

Q: And the GI50 (ACHN renal)?
A: Its GI50 is 961 nM and 5290 nM.

Q: What about the TGI (ACHN renal) of the same molecule?
A: The TGI was 23200 nM.

Q: And the GI50 (UO-31 renal)?
A: Its GI50 is 456 nM and 558 nM.

Q: What about the TGI (UO-31 renal) of the same molecule?
A: Its TGI is 8320 nM and 11400 nM.

Q: And the TGI (A549 NSCLC)?
A: Its TGI is 8400 nM.

Q: What about the GI50 (HCT-116 colon) of the same molecule?
A: Its GI50 is 149 nM and 1330 nM.

Q: And the TGI (HCT-116 colon)?
A: The TGI was 10700 nM.

Q: What about the GI50 (OVCAR-4 ovarian) of the same molecule?
A: Its GI50 is 4310 nM and 6310 nM.

Q: What about the TGI (OVCAR-4 ovarian) of the same molecule?
A: The TGI was 20400 nM.

Q: And the GI50 (LOX IMVI melanoma)?
A: Its GI50 is 39.6 nM.

Q: What about the TGI (LOX IMVI melanoma) of the same molecule?
A: Its TGI is 2820 nM and 2170 nM.

Q: And the GI50 (SR leukemia)?
A: Its GI50 is 10.6 nM.

Q: And the TGI (SR leukemia)?
A: Its TGI is 2600 nM.

Q: And the GI50 (HL-60(TB) leukemia)?
A: The GI50 was 58.3 nM.

Q: What about the TGI (HL-60(TB) leukemia) of the same molecule?
A: Its TGI is 6040 nM.

Q: What about the GI50 (TK-10 renal) of the same molecule?
A: Its GI50 is 3440 nM.

Q: And the TGI (TK-10 renal)?
A: The TGI was 14700 nM.

Q: And the GI50 (MOLT-4 leukemia)?
A: Its GI50 is 5.68 nM.

Q: What about the TGI (MOLT-4 leukemia) of the same molecule?
A: Its TGI is 1090 nM and 1630 nM.

Q: What about the GI50 (HOP-62 NSCLC) of the same molecule?
A: Its GI50 is 1280 nM and 1130 nM.
